Patent US20120208853A1, “PEST CONTROL COMPOSITION” (priority 2009, published 2012)

Key:
Plutella xylostella = experiment: Pesticidal effect on Plutella xylostella by bait crop immersion treatment; format: in vivo; settings: 48 h, 0.8 ppm alone (Comparative Example 4-2), third-instar larvae, 2 days after, 25° C.
Procedure: Test Example 1: Pesticidal Effect on Plutella xylostella by Bait Crop Immersion Treatment
To 10 mg of the compound (1) was added 0.2 ml of acetone containing 5% of Tween 20 (product name: SOLGEN (registered trademark) TW-20, manufactured by Dai-ichi Kogyo Seiyaku Co., Ltd.) to cause dissolution, and the solution was diluted with a 5,000-fold diluted solution of a spreading agent (product name: Dine (registered trademark), manufactured by Sumitomo Chemical Garden Products Inc.) to prepare a diluted liquid of the compound (1). […] The cup was stored in a constant temperature breeding room (25° C.), and the number of dead larvae was counted 2 days after, and the mortality was determined by the following equation [1]. […]
(§1) To 10 mg of the compound (13) was added 0.2 ml of acetone containing 5% of Tween 20 (product name: SOLGEN (registered trademark) TW-20, manufactured by Dai-ichi Kogyo Seiyaku Co., Ltd.) to cause dissolution, and the solution was diluted with a 5,000-fold diluted solution of a spreading agent (product name: Dine (registered trademark), manufactured by Sumitomo Chemical Garden Products Inc.) to prepare a diluted liquid of the compound (13). […] The cup was stored in a constant temperature breeding room (25° C.), and the number of dead larvae was counted 2 days after, and the mortality was determined by the above equation [1].

Spodoptera litura = experiment: Pesticidal effect on Spodoptera litura by bait crop immersion treatment; format: in vivo; settings: 48 h, fourth-instar larvae, 2 days after, 25° C.
Procedure: Mortality (%)=(dead larvae number/tested larvae number)×100 Equation [1]
Test Example 3: Pesticidal Effect on Spodoptera litura by Bait Crop Immersion Treatment
as §1, with “(13) or (15)” for “(13)”, “compound. A commercially available pyriproxyfen emulsifiable concentrate manufactured by Sumitomo Chemical Co., Ltd. under the product name of Lano (registered trademark) emulsifiable concentrate was diluted with a 5,000-fold diluted solution of a spreading agent (product name: Dine (registered trademark), manufactured by Sumitomo Chemical Garden Products Inc.) to prepare a diluted liquid of pyriproxyfen. These diluted liquids were mixed to prepare a test solution of prescribed concentration.” for “compound (13).”

## CC(COc1ccc(Oc2ccccc2)cc1)Oc1ccccn1 (racemic) [pyriproxyfen, 4-phenoxyphenyl (RS)-2-(2-pyridyloxy)propyl ether]
Plutella xylostella
  mortality at 0.8 ppm: 40%
Spodoptera litura; 0.2 ppm alone (Comparative Examples 5-2, 7-2)
  mortality at 0.2 ppm: 30%
Spodoptera litura; 3.13 ppm alone (Comparative Example 6-2)
  mortality at 3.13 ppm: 50%
